Assay results from PMC12300041, “Tricyclic Isatin Derivatives as Anti-Inflammatory Compounds with High Kinase Binding Affinity” (Molecules, 2025).

Tests used:
Assay in all cases: KINOMEscan
Assay type in all cases: binding
[1] = molecular target: T1, EPHA5 (Homo sapiens, UniProt P54756)
T1 construct: purchased Eurofins DiscoverX KINOMEscan
Summary of the method: (§1)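 A 12-point half-log dilution series topping at 33 μM defined each Kd. The kinase fraction escaping compound binding over 1 h at room temperature was trapped by an immobilized affinity ligand and measured by quantitative PCR.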

[2] = molecular target: T2, MELK (Homo sapiens, UniProt Q14680)
T2 construct: purchased Eurofins DiscoverX KINOMEscan
T2 sequence (Q14680 whole entry): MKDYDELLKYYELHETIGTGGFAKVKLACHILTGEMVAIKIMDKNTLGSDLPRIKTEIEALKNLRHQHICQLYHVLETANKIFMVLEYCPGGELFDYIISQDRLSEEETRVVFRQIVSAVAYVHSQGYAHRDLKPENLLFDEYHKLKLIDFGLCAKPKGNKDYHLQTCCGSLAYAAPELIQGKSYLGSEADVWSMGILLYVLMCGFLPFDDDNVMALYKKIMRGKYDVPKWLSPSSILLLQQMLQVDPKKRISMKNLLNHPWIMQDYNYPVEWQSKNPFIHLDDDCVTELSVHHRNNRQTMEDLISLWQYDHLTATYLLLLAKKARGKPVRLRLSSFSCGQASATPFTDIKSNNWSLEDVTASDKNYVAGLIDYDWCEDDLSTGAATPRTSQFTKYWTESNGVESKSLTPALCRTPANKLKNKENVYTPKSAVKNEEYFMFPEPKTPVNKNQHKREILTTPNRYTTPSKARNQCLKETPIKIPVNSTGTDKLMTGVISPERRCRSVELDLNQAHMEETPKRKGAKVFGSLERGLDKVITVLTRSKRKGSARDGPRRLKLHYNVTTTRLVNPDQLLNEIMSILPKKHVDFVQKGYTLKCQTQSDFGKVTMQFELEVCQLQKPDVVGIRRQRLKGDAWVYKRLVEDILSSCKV
Summary of the method: (§2)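 Active-site competition format. Unbound kinase fraction measured by affinity-ligand capture plus qPCR after 1 h at RT. Kd from 12-point half-log titration, maximum 33 μM.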

[3] = molecular target: T3, PRKCH (Homo sapiens, UniProt P24723)
T3 construct: purchased Eurofins DiscoverX KINOMEscan
Summary of the method: as §1

[4] = molecular target: T4, NEK4 (Homo sapiens, UniProt P51957)
T4 construct: purchased Eurofins DiscoverX KINOMEscan
Summary of the method: as §2

[5] = molecular target: T5, FLT3 (D835Y) (Homo sapiens, UniProt P36888, D835Y)
T5 construct: purchased Eurofins DiscoverX KINOMEscan
Summary of the method: as §2

[6] = molecular target: T6, CSNK1G1 (Homo sapiens, UniProt Q9HCP0)
T6 construct: purchased Eurofins DiscoverX KINOMEscan
Summary of the method: as §2

[7] = molecular target: T7, CAMK1G (Homo sapiens, UniProt Q96NX5)
T7 construct: purchased Eurofins DiscoverX KINOMEscan
Summary of the method: as §2

[8] = molecular target: T8, STK33 (Homo sapiens, UniProt Q9BYT3)
T8 construct: purchased Eurofins DiscoverX KINOMEscan
Summary of the method: as §2

[9] = molecular target: T9, PIK3CA (E545K) (Homo sapiens, UniProt P42336, E545K)
T9 construct: purchased Eurofins DiscoverX KINOMEscan
T9 sequence (P42336 whole entry E545K): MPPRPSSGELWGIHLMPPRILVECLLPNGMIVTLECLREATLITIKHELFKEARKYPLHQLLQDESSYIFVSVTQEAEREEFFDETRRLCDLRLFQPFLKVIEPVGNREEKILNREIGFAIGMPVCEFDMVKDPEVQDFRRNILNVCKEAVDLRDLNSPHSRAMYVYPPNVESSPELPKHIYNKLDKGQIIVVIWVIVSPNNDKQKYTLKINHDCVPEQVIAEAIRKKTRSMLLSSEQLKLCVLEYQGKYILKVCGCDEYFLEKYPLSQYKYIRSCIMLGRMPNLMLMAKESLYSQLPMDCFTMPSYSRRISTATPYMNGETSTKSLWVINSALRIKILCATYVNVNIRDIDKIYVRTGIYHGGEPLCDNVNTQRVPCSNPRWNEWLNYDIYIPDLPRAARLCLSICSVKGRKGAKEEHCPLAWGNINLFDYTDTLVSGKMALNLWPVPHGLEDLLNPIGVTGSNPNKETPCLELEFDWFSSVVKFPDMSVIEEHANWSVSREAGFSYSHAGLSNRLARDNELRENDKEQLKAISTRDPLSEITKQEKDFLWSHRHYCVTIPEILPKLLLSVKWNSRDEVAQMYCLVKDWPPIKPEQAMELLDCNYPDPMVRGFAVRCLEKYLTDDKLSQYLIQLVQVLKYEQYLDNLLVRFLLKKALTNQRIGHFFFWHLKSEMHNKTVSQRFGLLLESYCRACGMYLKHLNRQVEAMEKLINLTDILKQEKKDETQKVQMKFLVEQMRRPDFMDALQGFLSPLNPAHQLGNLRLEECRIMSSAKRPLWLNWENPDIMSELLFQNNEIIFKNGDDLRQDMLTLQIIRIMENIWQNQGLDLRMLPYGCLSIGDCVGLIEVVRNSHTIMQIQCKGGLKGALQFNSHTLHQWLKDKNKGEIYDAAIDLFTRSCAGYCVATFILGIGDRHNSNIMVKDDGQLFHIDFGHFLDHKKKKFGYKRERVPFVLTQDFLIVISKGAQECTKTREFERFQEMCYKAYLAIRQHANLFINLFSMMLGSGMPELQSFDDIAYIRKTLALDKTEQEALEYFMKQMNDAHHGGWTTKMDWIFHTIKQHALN
Summary of the method: as §2

[10] = molecular target: T10, FLT3 (D835V) (Homo sapiens, UniProt P36888, D835V)
T10 construct: purchased Eurofins DiscoverX KINOMEscan
Summary of the method: as §2

[11] = molecular target: T11, LRRK2 (G2019S) (Homo sapiens, UniProt Q5S007, G2019S)
T11 construct: purchased Eurofins DiscoverX KINOMEscan
Summary of the method: as §2

[12] = molecular target: T12, BLK (Homo sapiens, UniProt P51451)
T12 construct: purchased Eurofins DiscoverX KINOMEscan
Summary of the method: as §2

[13] = molecular target: T13, p38-β (Homo sapiens, UniProt Q15759)
T13 construct: purchased Eurofins DiscoverX KINOMEscan
Summary of the method: as §2

[14] = molecular target: T14, PFTAIRE2 (Homo sapiens, UniProt Q96Q40)
T14 construct: purchased Eurofins DiscoverX KINOMEscan
Summary of the method: as §1

[15] = molecular target: T15, GRK2 (Homo sapiens, UniProt P25098)
T15 construct: purchased Eurofins DiscoverX KINOMEscan
Summary of the method: as §2

[16] = molecular target: T16, RIOK3 (Homo sapiens, UniProt O14730)
T16 construct: purchased Eurofins DiscoverX KINOMEscan
Summary of the method: as §1

[17] = molecular target: T17, PRKD3 (Homo sapiens, UniProt O94806)
T17 construct: purchased Eurofins DiscoverX KINOMEscan
Summary of the method: as §2

[18] = molecular target: T18, RPS6KA5 (Kin. Dom.1-N-term.) (Homo sapiens, UniProt O75582)
T18 construct: RPS6KA5 (Kin. Dom.1-N-term.); purchased Eurofins DiscoverX KINOMEscan
Summary of the method: as §2

[19] = molecular target: T19, EPHA2 (Homo sapiens, UniProt P29317)
T19 construct: purchased Eurofins DiscoverX KINOMEscan
Summary of the method: as §2

[20] = molecular target: T20, CIT (Homo sapiens, UniProt O14578)
T20 construct: purchased Eurofins DiscoverX KINOMEscan
Summary of the method: as §2

[21] = molecular target: T21, MST2 (Homo sapiens, UniProt Q13188)
T21 construct: purchased Eurofins DiscoverX KINOMEscan
Summary of the method: as §2

[22] = molecular target: T22, VEGFR2 (Homo sapiens, UniProt P35968)
T22 construct: purchased Eurofins DiscoverX KINOMEscan
Summary of the method: as §1

[23] = molecular target: T23, ASK1 (Homo sapiens, UniProt Q99683)
T23 construct: purchased Eurofins DiscoverX KINOMEscan
T23 sequence (Q99683 whole entry): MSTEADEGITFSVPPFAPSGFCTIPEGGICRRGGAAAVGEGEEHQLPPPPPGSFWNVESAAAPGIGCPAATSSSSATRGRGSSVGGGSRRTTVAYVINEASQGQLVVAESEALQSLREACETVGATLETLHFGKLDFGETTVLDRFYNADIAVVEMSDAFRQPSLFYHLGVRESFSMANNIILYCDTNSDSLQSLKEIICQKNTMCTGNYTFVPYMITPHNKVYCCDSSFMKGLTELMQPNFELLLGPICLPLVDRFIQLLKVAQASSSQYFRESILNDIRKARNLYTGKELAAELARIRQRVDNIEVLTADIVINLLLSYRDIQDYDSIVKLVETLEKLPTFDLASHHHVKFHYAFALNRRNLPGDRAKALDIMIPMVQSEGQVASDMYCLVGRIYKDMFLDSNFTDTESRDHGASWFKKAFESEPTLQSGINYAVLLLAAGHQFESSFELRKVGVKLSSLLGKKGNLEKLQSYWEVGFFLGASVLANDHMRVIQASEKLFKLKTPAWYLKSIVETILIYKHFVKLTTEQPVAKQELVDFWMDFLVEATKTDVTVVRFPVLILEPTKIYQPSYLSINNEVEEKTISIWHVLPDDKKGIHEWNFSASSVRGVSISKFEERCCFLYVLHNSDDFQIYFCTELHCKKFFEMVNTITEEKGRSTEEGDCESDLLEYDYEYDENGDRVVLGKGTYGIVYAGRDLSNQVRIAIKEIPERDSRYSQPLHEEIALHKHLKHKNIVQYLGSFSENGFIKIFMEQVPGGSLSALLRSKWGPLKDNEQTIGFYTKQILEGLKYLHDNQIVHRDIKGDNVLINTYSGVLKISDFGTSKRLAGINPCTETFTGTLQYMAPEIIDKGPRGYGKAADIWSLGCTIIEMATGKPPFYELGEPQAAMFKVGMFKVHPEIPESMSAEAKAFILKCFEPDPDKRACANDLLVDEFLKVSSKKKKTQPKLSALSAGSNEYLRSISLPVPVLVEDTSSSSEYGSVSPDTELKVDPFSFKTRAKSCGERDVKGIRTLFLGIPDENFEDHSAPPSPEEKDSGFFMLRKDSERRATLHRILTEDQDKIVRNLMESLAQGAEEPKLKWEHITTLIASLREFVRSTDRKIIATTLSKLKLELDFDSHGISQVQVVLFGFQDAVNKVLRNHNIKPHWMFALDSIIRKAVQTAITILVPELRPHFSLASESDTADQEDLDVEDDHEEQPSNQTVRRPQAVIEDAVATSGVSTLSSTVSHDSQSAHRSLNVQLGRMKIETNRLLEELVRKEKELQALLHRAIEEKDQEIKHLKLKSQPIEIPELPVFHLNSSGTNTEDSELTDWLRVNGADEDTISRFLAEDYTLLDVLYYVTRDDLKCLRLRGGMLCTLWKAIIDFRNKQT
Summary of the method: as §1

[24] = molecular target: T24, MLK3 (Homo sapiens, UniProt Q16584)
T24 construct: purchased Eurofins DiscoverX KINOMEscan
T24 sequence (Q16584 whole entry): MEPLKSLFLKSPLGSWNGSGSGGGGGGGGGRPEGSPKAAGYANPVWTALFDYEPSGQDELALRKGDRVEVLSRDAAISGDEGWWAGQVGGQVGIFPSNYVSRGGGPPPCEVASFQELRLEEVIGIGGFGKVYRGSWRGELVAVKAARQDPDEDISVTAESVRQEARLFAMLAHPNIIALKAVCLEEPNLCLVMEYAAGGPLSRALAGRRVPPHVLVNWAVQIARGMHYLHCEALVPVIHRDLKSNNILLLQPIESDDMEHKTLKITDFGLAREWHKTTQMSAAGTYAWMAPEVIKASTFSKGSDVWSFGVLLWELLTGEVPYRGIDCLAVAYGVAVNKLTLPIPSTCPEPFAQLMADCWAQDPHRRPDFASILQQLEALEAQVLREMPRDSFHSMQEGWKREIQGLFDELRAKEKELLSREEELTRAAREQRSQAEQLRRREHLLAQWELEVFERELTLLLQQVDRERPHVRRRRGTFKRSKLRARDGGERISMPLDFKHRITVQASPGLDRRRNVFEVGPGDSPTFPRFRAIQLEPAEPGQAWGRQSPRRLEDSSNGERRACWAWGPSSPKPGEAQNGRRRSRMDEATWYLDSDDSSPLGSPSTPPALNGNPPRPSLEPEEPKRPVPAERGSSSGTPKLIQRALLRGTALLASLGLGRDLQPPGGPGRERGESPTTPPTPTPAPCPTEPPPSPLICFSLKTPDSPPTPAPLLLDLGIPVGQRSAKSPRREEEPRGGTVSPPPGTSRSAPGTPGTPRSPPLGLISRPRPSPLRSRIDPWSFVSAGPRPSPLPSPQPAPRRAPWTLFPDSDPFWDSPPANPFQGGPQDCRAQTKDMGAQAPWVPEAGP
Summary of the method: as §1

[25] = molecular target: T25, BRSK2 (Homo sapiens, UniProt Q8IWQ3)
T25 construct: purchased Eurofins DiscoverX KINOMEscan
Summary of the method: as §2

[26] = molecular target: T26, ITK (Homo sapiens, UniProt Q08881)
T26 construct: purchased Eurofins DiscoverX KINOMEscan
Summary of the method: as §1

[27] = molecular target: T27, IKK-α (Homo sapiens, UniProt O15111)
T27 construct: purchased Eurofins DiscoverX KINOMEscan
Summary of the method: as §1

[28] = molecular target: T28, MST1R (Homo sapiens, UniProt Q04912)
T28 construct: purchased Eurofins DiscoverX KINOMEscan
Summary of the method: as §2

[29] = molecular target: T29, TRKC (Homo sapiens, UniProt Q16288)
T29 construct: purchased Eurofins DiscoverX KINOMEscan
Summary of the method: as §1

[30] = molecular target: T30, TAK1 (Homo sapiens, UniProt O43318)
T30 construct: purchased Eurofins DiscoverX KINOMEscan
Summary of the method: as §1

[31] = molecular target: T31, CSNK1D (Homo sapiens, UniProt P48730)
T31 construct: purchased Eurofins DiscoverX KINOMEscan
Summary of the method: as §1

[32] = molecular target: T32, PHKG2 (Homo sapiens, UniProt P15735)
T32 construct: purchased Eurofins DiscoverX KINOMEscan
Summary of the method: as §1

[33] = molecular target: T33, CLK1 (Homo sapiens, UniProt P49759)
T33 construct: purchased Eurofins DiscoverX KINOMEscan
Summary of the method: as §1

[34] = molecular target: T34, RSK1 (Kin. Dom.1-N-term.) (Homo sapiens, UniProt Q15418)
T34 construct: RSK1 (Kin. Dom.1-N-term.); purchased Eurofins DiscoverX KINOMEscan
Summary of the method: as §1

[35] = molecular target: T35, KIT-autoinhibited (Homo sapiens, UniProt P10721)
T35 construct: purchased Eurofins DiscoverX KINOMEscan
Summary of the method: as §1

[36] = molecular target: T36, BMPR2 (Homo sapiens, UniProt Q13873)
T36 construct: purchased Eurofins DiscoverX KINOMEscan
Summary of the method: as §2

[37] = molecular target: T37, PIK3CA (E545A) (Homo sapiens, UniProt P42336, E545A)
T37 construct: purchased Eurofins DiscoverX KINOMEscan
T37 sequence (P42336 whole entry E545A): as the sequence (P42336 whole entry E545K) above, with K545A counted along it
Summary of the method: as §2

[38] = molecular target: T38, MRCKB (Homo sapiens, UniProt Q9Y5S2)
T38 construct: purchased Eurofins DiscoverX KINOMEscan
Summary of the method: as §2

[39] = molecular target: T39, CHEK2 (Homo sapiens, UniProt O96017)
T39 construct: purchased Eurofins DiscoverX KINOMEscan
Summary of the method: as §2

T1 sequence (P54756 25-1037): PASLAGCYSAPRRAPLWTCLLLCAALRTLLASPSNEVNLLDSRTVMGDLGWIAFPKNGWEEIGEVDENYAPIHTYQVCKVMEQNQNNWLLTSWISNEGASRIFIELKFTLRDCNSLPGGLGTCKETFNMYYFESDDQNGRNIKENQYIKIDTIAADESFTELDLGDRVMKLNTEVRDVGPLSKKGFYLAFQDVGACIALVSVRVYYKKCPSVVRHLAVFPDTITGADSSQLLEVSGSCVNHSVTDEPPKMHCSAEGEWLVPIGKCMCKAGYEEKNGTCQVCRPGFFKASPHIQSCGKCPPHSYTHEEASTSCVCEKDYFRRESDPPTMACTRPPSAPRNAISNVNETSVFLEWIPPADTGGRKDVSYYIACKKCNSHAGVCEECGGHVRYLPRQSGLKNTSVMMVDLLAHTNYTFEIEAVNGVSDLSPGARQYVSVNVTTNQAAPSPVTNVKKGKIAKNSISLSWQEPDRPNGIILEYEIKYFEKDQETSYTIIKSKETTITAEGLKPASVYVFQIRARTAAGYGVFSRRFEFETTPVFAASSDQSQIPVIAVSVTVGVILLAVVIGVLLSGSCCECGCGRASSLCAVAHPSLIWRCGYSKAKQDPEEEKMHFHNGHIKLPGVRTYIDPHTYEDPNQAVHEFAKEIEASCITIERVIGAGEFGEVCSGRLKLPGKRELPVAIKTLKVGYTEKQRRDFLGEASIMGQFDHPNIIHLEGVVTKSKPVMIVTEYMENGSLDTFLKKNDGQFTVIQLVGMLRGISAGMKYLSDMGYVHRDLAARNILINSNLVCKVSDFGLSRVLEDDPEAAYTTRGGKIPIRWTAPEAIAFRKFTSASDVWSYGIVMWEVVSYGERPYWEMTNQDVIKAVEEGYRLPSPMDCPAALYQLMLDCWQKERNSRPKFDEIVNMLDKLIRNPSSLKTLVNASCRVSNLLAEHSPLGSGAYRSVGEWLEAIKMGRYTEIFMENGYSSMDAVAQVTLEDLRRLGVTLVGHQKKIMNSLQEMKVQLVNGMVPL

O=C1Nc2c(cc([N+](=O)[O-])c3c2CCCC3)C1=NO [Compound 5d, 3-(Hydroxyimino)-5-nitro-1,3,6,7,8,9-hexahydro-2H-benzo[g]indol-2-one]
inhibition at 10 µM [1]: 9% | inhibition at 10 µM [2]: 56% | inhibition at 10 µM [3]: 0% | inhibition at 10 µM [4]: 1% | inhibition at 10 µM [5]: 54% | inhibition at 10 µM [6]: 84% | inhibition at 10 µM [7]: 29% | inhibition at 10 µM [8]: 62% | inhibition at 10 µM [9]: 0% | inhibition at 10 µM [10]: 72% | inhibition at 10 µM [11]: 89% | inhibition at 10 µM [12]: 23% | inhibition at 10 µM [13]: 15% | inhibition at 10 µM [14]: 6% | inhibition at 10 µM [15]: 48% | inhibition at 10 µM [16]: 19% | inhibition at 10 µM [17]: 77% | inhibition at 10 µM [18]: 4% | inhibition at 10 µM [19]: 19% | inhibition at 10 µM [20]: 92.8% | inhibition at 10 µM [21]: 39% | inhibition at 10 µM [22]: 39% | inhibition at 10 µM [23]: 50% | inhibition at 10 µM [24]: 31% | inhibition at 10 µM [25]: 31% | inhibition at 10 µM [26]: 0% | inhibition at 10 µM [27]: 52% | inhibition at 10 µM [28]: 0% | inhibition at 10 µM [29]: 31% | inhibition at 10 µM [30]: 67% | inhibition at 10 µM [31]: 79% | inhibition at 10 µM [32]: 45% | inhibition at 10 µM [33]: 85% | inhibition at 10 µM [34]: 0% | inhibition at 10 µM [35]: 0% | inhibition at 10 µM [36]: 64% | inhibition at 10 µM [37]: 30% | inhibition at 10 µM [38]: 0% | inhibition at 10 µM [39]: 48%
